In PubChem BioAssay AID256 (DTP/NCI, 2004):
“And” between values parts separate entries of the source, which are not always exact repeats. Equal entries are not always repeated. Toxic doses and inconclusive results are not listed. The calls were made as follows: active = survival T/C of 150% or more; inactive = T/C below 125% in these data.

Tested on: CD2F1 mice, L1210 leukemia ip, survival T/C
Assay: NCI In Vivo Anticancer Drug Screen. Data for tumor model L1210 Leukemia (intraperitoneal) in CD2F1 (CDF1) mice
Settings: endpoint: mean survival time, higher = longer survival
Procedure, shortened: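 Each value reflects a quotient of treated over vehicle control outcomes in mice with a transplanted tumor.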

Measured: T/C

CCC(c1ccc(OC(=O)Cc2ccc(N(CCCl)CCCl)cc2)cc1)C(CC)c1ccc(OC(=O)Cc2ccc(N(CCCl)CCCl)cc2)cc1 (centres undefined)
inactive: dose: 3.1 mg/kg/injection, schedule: Q03HX016 (ip), vehicle: saline with Tween-80 94 % of control | dose: 3.1 mg/kg/injection, schedule: Q03HX024 (ip), vehicle: saline with Tween-80 100 % of control | dose: 6.3 mg/kg/injection, schedule: Q03HX008 (ip), vehicle: saline with Tween-80 88 % of control | dose: 6.3 mg/kg/injection, schedule: Q03HX024 (ip), vehicle: saline with Tween-80 91 % of control | dose: 12.5 mg/kg/injection, schedule: Q01DX009 (ip), vehicle: saline with Tween-80 88 % of control | dose: 12.5 mg/kg/injection, schedule: Q01DX009 (sc), vehicle: saline with Tween-80 100 % of control | dose: 12.5 mg/kg/injection, schedule: Q03HX024 (ip), vehicle: saline with Tween-80 88 % of control | dose: 25.0 mg/kg/injection, schedule: Q01DX001 (ip), vehicle: saline with Tween-80 94 % of control | dose: 25.0 mg/kg/injection, schedule: Q01DX001 (oral), vehicle: saline with Tween-80 103 % of control | dose: 25.0 mg/kg/injection, schedule: Q01DX001 (sc), vehicle: saline with Tween-80 91 % of control | dose: 25.0 mg/kg/injection, schedule: Q01DX009 (ip), vehicle: saline with Tween-80 90 % of control | dose: 25.0 mg/kg/injection, schedule: Q01DX009 (oral), vehicle: saline with Tween-80 114 % of control | dose: 25.0 mg/kg/injection, schedule: Q01DX009 (sc), vehicle: saline with Tween-80 100 % of control | dose: 25.0 mg/kg/injection, schedule: Q03HX024 (ip), vehicle: saline with Tween-80 88 % of control | dose: 25.0 mg/kg/injection, schedule: Q04DX003 (ip), vehicle: saline with Tween-80 91 % of control | dose: 25.0 mg/kg/injection, schedule: Q08DX002 (ip), vehicle: saline with Tween-80 88 % of control | dose: 50.0 mg/kg/injection, schedule: Q01DX001 (oral), vehicle: saline with Tween-80 105 % of control | dose: 50.0 mg/kg/injection, schedule: Q01DX001 (sc), vehicle: saline with Tween-80 88 % of control | dose: 50.0 mg/kg/injection, schedule: Q01DX009 (ip), vehicle: saline with Tween-80 88 % of control | dose: 50.0 mg/kg/injection, schedule: Q01DX009 (oral), vehicle: saline with Tween-80 94 % of control | dose: 50.0 mg/kg/injection, schedule: Q01DX009 (sc), vehicle: saline with Tween-80 97 % of control | dose: 50.0 mg/kg/injection, schedule: Q03HX016 (ip), vehicle: saline with Tween-80 88 % of control | dose: 50.0 mg/kg/injection, schedule: Q03HX024 (ip), vehicle: saline with Tween-80 88 % of control | dose: 50.0 mg/kg/injection, schedule: Q04DX003 (ip), vehicle: saline with Tween-80 88 % of control | dose: 50.0 mg/kg/injection, schedule: Q08DX002 (ip), vehicle: saline with Tween-80 90 % of control | dose: 80.0 mg/kg/injection, schedule: Q01DX005 (ip), vehicle: saline with Tween-80 96 % of control | dose: 80.0 mg/kg/injection, schedule: Q01DX009 (ip), vehicle: saline with Tween-80 93 % of control | dose: 100.0 mg/kg/injection, schedule: Q01DX001 (ip), vehicle: saline with Tween-80 90 % of control and 95 % of control | dose: 100.0 mg/kg/injection, schedule: Q01DX001 (oral), vehicle: saline with Tween-80 105 % of control | dose: 100.0 mg/kg/injection, schedule: Q01DX001 (sc), vehicle: saline with Tween-80 102 % of control | dose: 100.0 mg/kg/injection, schedule: Q01DX009 (ip), vehicle: saline with Tween-80 90 % of control | dose: 100.0 mg/kg/injection, schedule: Q01DX009 (oral), vehicle: saline with Tween-80 101 % of control | dose: 100.0 mg/kg/injection, schedule: Q01DX009 (sc), vehicle: saline with Tween-80 100 % of control | dose: 100.0 mg/kg/injection, schedule: Q04DX002 (ip), vehicle: saline with Tween-80 101 % of control | dose: 100.0 mg/kg/injection, schedule: Q04DX003 (ip), vehicle: saline with Tween-80 90 % of control | dose: 100.0 mg/kg/injection, schedule: Q08DX002 (ip), vehicle: saline with Tween-80 90 % of control | dose: 120.0 mg/kg/injection, schedule: Q01DX005 (ip), vehicle: saline with Tween-80 96 % of control | dose: 120.0 mg/kg/injection, schedule: Q01DX009 (ip), vehicle: saline with Tween-80 93 % of control | dose: 180.0 mg/kg/injection, schedule: Q01DX005 (ip), vehicle: saline with Tween-80 92 % of control | dose: 180.0 mg/kg/injection, schedule: Q01DX009 (ip), vehicle: saline with Tween-80 92 % of control | dose: 200.0 mg/kg/injection, schedule: Q01DX001 (ip), vehicle: saline with Tween-80 90 % of control | dose: 200.0 mg/kg/injection, schedule: Q01DX001 (oral), vehicle: saline with Tween-80 102 % of control | dose: 200.0 mg/kg/injection, schedule: Q01DX001 (sc), vehicle: saline with Tween-80 97 % of control | dose: 200.0 mg/kg/injection, schedule: Q01DX009 (ip), vehicle: saline with Tween-80 88 % of control | dose: 200.0 mg/kg/injection, schedule: Q01DX009 (oral), vehicle: saline with Tween-80 100 % of control | dose: 200.0 mg/kg/injection, schedule: Q01DX009 (sc), vehicle: saline with Tween-80 97 % of control | dose: 200.0 mg/kg/injection, schedule: Q04DX002 (ip), vehicle: saline with Tween-80 93 % of control | dose: 200.0 mg/kg/injection, schedule: Q04DX003 (ip), vehicle: saline with Tween-80 90 % of control | dose: 200.0 mg/kg/injection, schedule: Q08DX002 (ip), vehicle: saline with Tween-80 87 % of control | dose: 270.0 mg/kg/injection, schedule: Q01DX005 (ip), vehicle: saline with Tween-80 96 % of control | dose: 270.0 mg/kg/injection, schedule: Q01DX009 (ip), vehicle: saline with Tween-80 90 % of control | dose: 400.0 mg/kg/injection, schedule: Q01DX001 (ip), vehicle: saline with Tween-80 90 % of control | dose: 400.0 mg/kg/injection, schedule: Q01DX001 (oral), vehicle: saline with Tween-80 103 % of control | dose: 400.0 mg/kg/injection, schedule: Q01DX001 (sc), vehicle: saline with Tween-80 97 % of control | dose: 400.0 mg/kg/injection, schedule: Q01DX009 (oral), vehicle: saline with Tween-80 96 % of control | dose: 400.0 mg/kg/injection, schedule: Q04DX002 (ip), vehicle: saline with Tween-80 93 % of control | dose: 400.0 mg/kg/injection, schedule: Q08DX002 (ip), vehicle: saline with Tween-80 90 % of control | dose: 405.0 mg/kg/injection, schedule: Q01DX005 (ip), vehicle: saline with Tween-80 93 % of control | dose: 405.0 mg/kg/injection, schedule: Q01DX009 (ip), vehicle: saline with Tween-80 92 % of control | dose: 800.0 mg/kg/injection, schedule: Q01DX001 (ip), vehicle: saline with Tween-80 88 % of control and 90 % of control | dose: 800.0 mg/kg/injection, schedule: Q01DX001 (oral), vehicle: saline with Tween-80 97 % of control | dose: 800.0 mg/kg/injection, schedule: Q01DX001 (sc), vehicle: saline with Tween-80 90 % of control

CN(C)N=Nc1ccc(Cl)cc1C(N)=O
inactive: dose: 18.8 mg/kg/injection, schedule: Q01DX009 (ip), vehicle: Klucel (hydroxypropylcellulose) (HPC) 93 % of control and 98 % of control | dose: 37.5 mg/kg/injection, schedule: Q01DX009 (ip), vehicle: Klucel (hydroxypropylcellulose) (HPC) 91 % of control and 95 % of control | dose: 75.0 mg/kg/injection, schedule: Q01DX009 (ip), vehicle: Klucel (hydroxypropylcellulose) (HPC) 91 % of control and 104 % of control | dose: 150.0 mg/kg/injection, schedule: Q01DX009 (ip), vehicle: Klucel (hydroxypropylcellulose) (HPC) 114 % of control

CCNC(=O)N1CC2CCC(C1)N2C
inactive: dose: 100.0 mg/kg/injection, schedule: Q04DX003 (ip), vehicle: saline 101 % of control | dose: 200.0 mg/kg/injection, schedule: Q04DX003 (ip), vehicle: saline 96 % of control | dose: 400.0 mg/kg/injection, schedule: Q04DX003 (ip), vehicle: saline 90 % of control
